assay: Oral bioavailability in rat; format: ADME, organism-based; settings: in vivo

Row | bioavailability [%] | SMILES
1 | 13 | Fc1cc(F)c(-c2cc(Nc3ccncc3)c3cc[nH]c3n2)cc1Cl
2 | 65 | Fc1ccc(-c2cc(Nc3ccncc3)c3cc[nH]c3n2)c(F)c1
3 | 17 | C[C@H](O)CNC(=O)c1cnccc1Nc1cc(-c2cc(Cl)ccc2F)nc2[nH]ccc12
4 | 62 | Cc1cnc(-c2cc(Cl)ccc2F)cc1-n1c(=O)n(CC(N)=O)c2cnccc21 [TP-008]
